Source: patent US20040097454A1, “Method for modulation of cell phenotype” (University Technology Corporation, priority 1999, published 2004)

How the values were obtained:
[1] = test system: bovine aorta smooth muscle cells (BASMC); experiment: BASMC morphology and α SM actin content on PKA inhibition; format: cell-based
From the text: To confirm literature reports of the importance of cAMP for the smooth muscle cell (SMC) phenotype, bovine aorta smooth muscle cells (BASMC) were examined for changes in morphology and migration upon modulation of PKA activity. These cells are from a single vascular bed and harvested from an ingrown strain of cattle. BASMC are an established model of vascular smooth muscle tissue in culture (Cucina et al., 1999, J. Surg. Res., 82:61-66; Frid et al., 1997, Circ. Res., 81:940-952; Frid et al., Arterioscler Throb Vasc Biol 17:1203-1209,1997; Hatzi et al., 1999, Eur. J. Biochem., 260:825-832; Stenmark et al., Chest 114:82S-90S, 1998; Takahashi et al., Circ Res 84:543-550, 1999; Underwood et al., 1998, J. Vasc. Res., 35:449-460), and are useful for assessing vascular smooth muscle cell proliferation, migration and contraction. […] Specifically, H89 results in loss of SMC “spindle shape” representative of differentiated, contractile phenotype.

[2] = test system: CREB-dependent promoter transactivation in BASMC; experiment: CREB-dependent Gal4-TKluc reporter in BASMC; format: cell-based, bovine; settings: for CREB-dependent promoter transactivation: insulin 100 nM, glucose 25 mM
Experimental: Isoproterenol is well documented to act through cAMP, yet no studies defining its impact on CREB transactivation in SMCs have been reported. In the next experiment, the ability of ISO to drive a CREB dependent reporter construct was determined. BASMC were transfected with Gal4-TKluc plasmid containing the Gal4 promoter and a thymidine kinase enhancer upstream of the gene encoding a luciferase reporter. These cells were cotransfected with control plasmid (pUC19), a plasmid encoding the Gal4 protein alone, or plasmids encoding chimeric Gal4 proteins with either wild type CRF-B (pZI-Gal4-TKluc) or Ser 133 mutated CREB (SeYI33). […] Of note, basal PKA mediated CRE reporter transcription is very high in these cells and is blocked by the PKA inhibitor H89.

P-CREB/CREB in BASMC = experiment: Acute CREB phosphorylation in BASMC; format: cell-based, bovine; settings: acute treatment, confluent BASMC serum starved 48 hours
Experimental: A series of experiments was performed to determine the ability of insulin, IGF-1 and ISO to acutely enhance CREB phosphorylation in BASMC. BASMC were grown to confluence, ss for 48 hours, and acutely treated with insulin, IGF-1, or Iso in the concentrations noted in FIG. 12A-12C.

BASMC migration = experiment: SMC migration, Boyden chamber; format: cell-based, bovine; settings: high glucose 25 mM vs 5 mM, 48 h
Experimental: BASMC were grown to 70% confluence and serum starved for 48 hours. Cells were then treated with 0.1 uM PDGF and assessed for thymidine incorporation (FIG. 10A) and migration (FIG. 10B) as follows. […] Migratory behavior of SMC cells was assessed using a 12 well micro-Boyden chamber apparatus (Transwell Apparatus, Costar, Corning, N.Y.). […] Wells were covered with a Type I collagen-coated PVP-free filter with 8 mm pores (Transwell Apparatus, Costar, Corning, N.Y.). Trypsinized cells were resuspended in serum-free medium containing either chemotactic compounds or vehicle, and plated at a density of 25,000 or 50,000 cells per well in a volume of 100 μL. At the end of the incubation, cells attached to the filter were fixed and stained in Dif Quick (American flospital Supply Corp., McGraw Park, Ill.).

CREB in BASMC = experiment: CREB content and phosphorylation in BASMC exposed to high glucose or high insulin; format: cell-based, bovine; settings: 72 hours exposure
Experimental: Studies were undertaken in BASMC to examine the impact of high glucose (HG) and/or high insulin (HI) on CREB and ICER content. BASMC were grown to confluence, ss for 24 hours, then treated with the concentrations of insulin and/or glucose.

ICER in BASMC = experiment: ICER protein and mRNA content in BASMC exposed to glucose and insulin; format: cell-based, bovine; settings: for ICER protein content: 72 hour; for ICER mRNA: glucose (5 and 25 mM) and insulin (3 and 100 nM), 72 h
Experimental: Next, BASMCs were exposed to either 3 nM or 100 nM insulin for 72 hours and analyzed for mRNA content of ICER. ICER protein was induced by physiological doses of glucose and insulin. […] BASMC were cultured to 90% confluence and treated with glucose (5 and 25 mM) and insulin ([…]) for 72 h. Total RNA was isolated from these cells using Qiagen's RNeasy kit. RNA samples were fractionated on denaturing 1.2% agarose-formaldehyde gels and transferred to Hybond N+ membrane. ICER IIγ CDNA probe was labeled with thermostable alkaline phosphatase using the AlkPhos-Direct kit from Amersham Lifesciences (Buckinghamshire, England). Hybridization, washing and detection by CDP-Star were performed according to manufacturer's protocol.

[3] = test system: NIH 3T3-L1 preadipocyte cell lines; experiment: Adipocyte differentiation assay, Oil Red O staining of triacylglycerol; format: cell-based
Experimental: Differentiation assays were performed on cells growing on 8 chamber microscope slides. […] The cells were treated with a differentiation mixture, muristerone, or both. […] Muristerone was added to medium at a final concentration of 10 uM for the entire 10 day differentiation period. After 10 days in culture, the cells were stained with Oil Red 0 to visualize triacylglycerol vesicles as previously described (Klemm et al., 1998, J. Biol. Chem., 273:917-923), and counterstained with hematoxylin to visualize cell morphology. Cells were observed by brightfield microscopy and representative fields, were photographed.

[4] = test system: putative CRE sequences of adipocyte-specific gene promoters; experiment: Gel retardation assay of recombinant CREB with putative CRE oligonucleotides; format: binding; settings: twenty base pair double stranded 32P-labeled oligonucleotides
Experimental: Next, the ability of purified, recombinant CREB to bind double stranded oligonucleotide probes of these sequences in gel retardation assays was tested as previously described in Klemm et al., 1998, J. Biol. Chem., 273:917-923. Twenty base pair, double stranded nucleotides, end labeled with y32P-ATP and polynucleotide kinase, were incubated with purified, recombinant 30 CREB protein. The reactions were separated on nondenaturing, 6% polyacrylamide gels and exposed to Kodak X-ARomat film. […] In these experiments, 5 ug of nuclear extract protein prepared from 3T3-L1 fibroblasts was incubated with the indicated, labeled oligonucleotides either in the absence (−) or presence (+) of CREB specific antibody. The reactions were separated on polyacrylamide gels as described above and exposed to film. […] Obviously, CREB may not bind to some of the tested sequences in the context of their native promoter environment or under conditions found within the cell. Alternately, CREB may interact with the putative CRE sites we have tested in the PPARγ2 and CEBP α promoters under different conditions, or perhaps bind to other sequences in these promoters not identified by visual inspection.

BASMC = experiment: Cell cycle phase by fluorescence flow cytometry (Krishan's stain) in BASMC with inducible WT CREB; format: cell-based, bovine; settings: muristerone-induced expression; 0.1 or 10% serum
Experimental: BASMC were stably transfected with the muristerone-inducible wild-type CREB (WT CREB) expression vector. They were then exposed to serum at 0.1 or 10% with and with exposure to muristerone to induce CREB expression. FIGS. 8A-8D show control cells on the left and muristerone cells on the right. Cells were incubated with Krishan's stain and subjected to fluorescence flow cytometry to assess proliferative capacity to determine phase in the cell cycle. […] This peak was smaller in the cells incubated in low serum. […] The stably transfected clone served as its own control. Preliminary studies were next undertaken to investigate the impact of adenoviral infection with constitutively active CREB (adVP16 CREB) on CRE driven gene expression, proliferation, and migration.

O=S(=O)(NCCNC/C=C/c1ccc(Br)cc1)c1cccc2cnccc12 [H89]
α SM actin content ([1]; 0-10 uM, 72 hours): decreased α SM actin content
cellular morphology ([1]; 10 uM, 4, 8 and 24 hours, relative to untreated control): significant alterations in cellular morphology
basal PKA mediated CRE reporter transcription [2]: blocked
endogenous CREB kinase activity (Gal4-CREB reporter) ([2]; PKA inhibitor treatment): attenuates high endogenous CREB kinase activity

CC(C)NCC(O)c1ccc(O)c(O)c1 (centres unmarked) [Iso, Isoproterenol]
P-CREB/CREB content (P-CREB/CREB in BASMC): acutely increases P-CREB/CREB content

OC[C@H]1OC(O)[C@H](O)[C@@H](O)[C@@H]1O (some centres unmarked) [glucose]
cell migration in Boyden Chamber (BASMC migration): increased cell migration
CREB phosphorylation (PCREB) (CREB in BASMC): delayed increases in PCREB
change in CREB protein content (CREB in BASMC): −32%
ICER protein content (ICER in BASMC): induced ICER protein
ICER mRNA (ICER in BASMC): increase in ICER mRNA
CREB-dependent promoter transactivation [2]: attenuates this activity

CC(C)CC[C@@H](O)[C@](C)(O)[C@H]1CC[C@@]2(O)C3=CC(=O)[C@]4(O)C[C@@H](O)[C@@H](O)C[C@]4(C)[C@H]3[C@H](O)C[C@]12C [muristerone, reference compound]
triacylglycerol accumulation (Oil Red O) in control cells ([3]; control cells (pVgRXR, pIND-LacZ), 10 uM muristerone alone, 10 days): No triacylglycerol accumulation

IGF-1: insulin growth factor I
P-CREB/CREB content (P-CREB/CREB in BASMC): acutely increases P-CREB/CREB content

Recombinant CREB: purified, recombinant CREB protein
binding to promoter probes of PEPCK, FABP, FAS, SCD and CEBP genes [4]: able to bind

WT CREB: wild-type CREB expressed from muristerone-inducible vector or adenovirus
cell cycle phase (BASMC): cell cycle arrest

insulin: insulin; high insulin (HI)
triacylglycerol accumulation in VP16-CREB-expressing cells ([3]; muristerone induced cells also treated with insulin, versus muristerone alone): triacylglycerol accumulation was enhanced
CREB phosphorylation (PCREB) (CREB in BASMC): increased CREB phosphorylation
change in CREB protein content (CREB in BASMC): −24%
ICER protein content (ICER in BASMC): decreased ICER content
ICER mRNA (ICER in BASMC): increase in ICER mRNA
P-CREB/CREB content (P-CREB/CREB in BASMC): acutely increases P-CREB/CREB content
transcriptional activation of CREB in presence of H89 ([2]; PKA inhibited with H89): clear dose-dependent transcriptional activation of CREB
CREB-dependent promoter transactivation [2]: increases CREB-dependent promoter transactivation
